Data on 47 compounds can be found in patent US6221865A, “Inhibitors of protein isoprenyl transferases” (priority 1998, dated 2001).

Molecules are shown by their SMILES. Counter-ions that a name gives are not always drawn. Like-named read-outs stand apart in the source and are kept apart here.

As a reminder, the inhibition is the drop in the measured response relative to a control, in per cent.

This assay concerns the target T1, protein farnesyltransferase (Rattus norvegicus, UniProt Q02293+Q04631).
T1 construct: The enzyme is purified according to Reiss, Y., et al., Cell, 62: 81-88 (1990), utilizing steps one through three; from tissue; host or cells: rat brain
Briefly: Inhibition of farnesyltransferase (scintillation proximity assay, rat brain enzyme, biotin-K Ras B fragment substrate). Format: biochemical. Particulars: for % inhibition of farnesyltransferase at 1 × 10^-6 M / inhibition at 1 µM: 1 × 10^-6 M (Table 2); for % inhibition of farnesyltransferase at 1 × 10^-5 M: 1 × 10^-5 M (Table 1); for inhibition at 1 µM: read-out: % inhibition of farnesyltransferase at 1 × 10^-6 M; for % inhibition of farnesyltransferase at 1 × 10^-8 M: 1 × 10^-8 M (Table 4). An outline of the steps: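 Enzyme from rat brain, partly purified (steps one to three), assayed by SPA kit using 0.1 mM final biotin-K Ras B peptide as prenyl acceptor rather than biotin-lamin. Activity given as percent inhibition.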
For orientation: SPA uses beads or plates that emit light when radiolabelled molecules are held near them.

[1] abbreviates: read-out: % inhibition of farnesyltransferase at 1 × 10^-7 M, 1 × 10^-7 M (Table 3).

T1 sequence (Q02293 whole entry, one chain of several): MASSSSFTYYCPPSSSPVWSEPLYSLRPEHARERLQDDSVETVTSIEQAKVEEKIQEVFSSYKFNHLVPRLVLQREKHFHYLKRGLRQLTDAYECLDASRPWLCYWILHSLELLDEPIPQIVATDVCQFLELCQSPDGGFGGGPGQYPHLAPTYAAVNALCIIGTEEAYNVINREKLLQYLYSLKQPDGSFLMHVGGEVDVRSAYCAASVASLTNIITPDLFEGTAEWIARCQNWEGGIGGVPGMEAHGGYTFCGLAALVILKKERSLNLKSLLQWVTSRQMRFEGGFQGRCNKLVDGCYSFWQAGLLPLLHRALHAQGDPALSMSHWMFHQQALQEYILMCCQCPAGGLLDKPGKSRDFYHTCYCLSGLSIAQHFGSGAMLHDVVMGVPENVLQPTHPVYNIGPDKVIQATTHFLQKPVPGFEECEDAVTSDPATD

With `CSCC[C@H](NC(=O)c1ccc(CNC(CC2CCCCC2)C(O)C(O)CC(C)C)cc1-c1ccccc1C)C(=O)O` (some centres unmarked) [Example 528], the “% inhibition of farnesyltransferase at 1 × 10^-6 M” value (from here on “% inhibition … at 1 × 10^-6 M”) was determined as 99%.
On to `CSCC[C@H](NC(=O)c1ccc(CCc2ccc(Oc3ccccc3)nn2)cc1-c1ccccc1C)C(=O)O` [Example 811, N-[4-(2-(3-phenoxylyridazin-6-yl)ethyl)-2-(2-methylphenyl)benzoyl]methionine lithium salt], for which the inhibition at 0.1 µM under setting [1] turned out to be 85%.
`CSCC[C@H](NC(=O)c1ccc(COCCC23CC4CC(CC(C4)C2)C3)cc1-c1ccccc1C)C(=O)O` [Example 404]: the “% inhibition … at 1 × 10^-6 M” value stood at 98%.
The same measure, in the same setting: the figure for `CSCC[C@H](NC(=O)c1ccc(COCc2ccoc2)cc1-c1ccccc1C)C(=O)O` [Example 530] is 94%.
For the compound `CSCC[C@H](NC(=O)c1ccc(CN[C@H](/C=C\CC(C)C)CC2CCCCC2)cc1-c1ccccc1)C(=O)O` [Example 666], the “% inhibition … at 1 × 10^-6 M” value was found to be 82%.
Regarding `CSCC[C@H](NC(=O)c1ccc(CNc2cc(C)ns2)cc1-c1ccccc1)C(=O)O` [Example 373], the “% inhibition of farnesyltransferase at 1 × 10^-5 M” value (from here on “% inhibition … at 1 × 10^-5 M”) turned out to be 76%.
As for `CSCC[C@H](NC(=O)c1ccc(CNc2ccccc2Oc2ccccc2)cc1-c1ccccc1)C(=O)O` [Example 645], the “% inhibition … at 1 × 10^-6 M” value is 37%.
In the case of `CSCC[C@H](NC(=O)c1ccc(CNCC(O)c2cccc(O)c2)cc1-c1ccccc1)C(=O)O` (some centres unmarked) [Example 661], the “% inhibition … at 1 × 10^-6 M” value is on record as 45%.
As to `CSCC[C@H](NC(=O)c1ccc(COCc2ccc(-c3cccc(C(F)(F)F)c3)o2)cc1-c1ccccc1C)C(=O)[O-].[Li+]` [Example 441], under “1 × 10^-7 M (Table 3)”, the “% inhibition of farnesyltransferase at 1 × 10^-7 M” value (from here on “% inhibition … at 1 × 10^-7 M”) was 91%.
Consider `CSCC[C@H](NC(=O)c1ccc(CCc2ccc(Oc3ccccc3N)cc2)cc1-c1ccccc1C)C(=O)O` [Example 857, N-[4-(2-(4-(2-aminophenoxy)phenyl)ethyl)-2-(2-methylphenyl)benzoyl]methionine], for which, under setting [1], the inhibition at 0.1 µM turned out to be 92%.
As to `Cc1ccccc1-c1cc(CN(C)C(C)(C)Cc2ccccc2)ccc1C(=O)N[C@@H](CCS(C)(=O)=O)C(=O)O` [Example 313], the inhibition at 1 µM turned out to be 94%.
On to `CSCC[C@H](NC(=O)c1ccc(C=Cc2cncs2)cc1-c1ccccc1C)C(=O)O` [Example 785, N-[4-(2-(thiazol-5-yl)ethen-1-yl)-2-(2-methylphenyl)benzoyl]methionine lithium salt], for which the inhibition at 0.1 µM under setting [1] stood at 96%.
On to `CCSCC(CC1CCCCC1)N(Cc1ccc(C(=O)N[C@@H](CCSC)C(=O)O)c(-c2ccccc2C)c1)CC(C)C` (some centres unmarked) [Example 945], for which, under “1 × 10^-7 M (Table 3)”, the “% inhibition … at 1 × 10^-7 M” value is 80%.
`CSCC[C@H](NC(=O)c1ccc(CNC(C)(C)Cc2ccccc2)cc1-c1ccccc1C)C(=O)O` [Example 307]: the inhibition at 1 µM came out at 82%.
As for `CSCC[C@H](NC(=O)c1ccc(COCCc2ccccc2)cc1-c1ccccc1C)C(=O)[O-].[Li+]` [Example 587], the “% inhibition … at 1 × 10^-6 M” value worked out at 97%.
In the case of `CSCC[C@H](NC(=O)c1ccc(OCCCC2CCCCC2)cc1-c1ccccc1C)C(=O)O` [Example 564], the “% inhibition … at 1 × 10^-6 M” value is given as 98%.
Consider `CSCC[C@H](NC(=O)c1ccc(CCc2cccc(-c3ccccc3)c2)cc1-c1ccccc1C)C(=O)O` [Example 793, N-[4-(2-(3-phenylphenyl)ethyl)-2-(2-methylphenyl)benzoyl]methionine lithium salt], for which the inhibition at 1 µM worked out at 94%.
For the compound `CSCC[C@H](NC(=O)c1ccc(CSCC2CCCCC2)cc1-c1ccccc1C)C(=O)[O-].[Li+]` [Example 559], the “% inhibition … at 1 × 10^-7 M” value (1 × 10^-7 M (Table 3)) was found to be 96%.
`CSCC[C@H](NC(=O)c1ccc(NC(=O)Cc2ccccc2[N+](=O)[O-])cc1-c1ccccc1)C(=O)O` [Example 757]: the “% inhibition … at 1 × 10^-5 M” value worked out at 58%.
For the compound `CSCC[C@H](NC(=O)c1ccc(CCc2ccc(Oc3ccccc3Cl)cc2)cc1-c1ccccc1C)C(=O)O` [Example 855, N-[4-(2-(4-(2-chlorophenoxy)phenyl)ethyl)-2-(2-methylphenyl)benzoyl]methionine], under setting [1], the inhibition at 0.1 µM was found to be 92%.
Consider `CSCC[C@H](NC(=O)c1ccc(CN2CCCC(OCc3ccccc3)C2)cc1-c1ccccc1C)C(=O)O` (some centres unmarked) [Example 989, N-[4-(3-benzyloxypiperidin-1-ylmethyl)-2-(2-methylphenyl)benzoyl]methionine], for which the inhibition at 1 µM worked out at 88%.
For the compound `CSCC[C@H](NC(=O)c1ccc(CN(C(CC2CCCCC2)CC2CCCCC2)S(=O)(=O)c2ccccc2)cc1-c1ccccc1C)C(=O)O` [Example 911], the “% inhibition … at 1 × 10^-6 M” value stood at 65%.
Regarding `CSCC[C@H](NC(=O)c1ccc(CN(C2CC2)C(C)(C)Cc2ccccc2)cc1-c1ccccc1C)C(=O)O` [Example 315], the inhibition at 1 µM amounted to 93%.
For the compound `CSCC[C@H](NC(=O)c1ccc(COCCc2ccc(-c3ccc(F)cc3)o2)cc1-c1ccccc1C)C(=O)[O-].[Li+]` [Example 535], the “% inhibition … at 1 × 10^-7 M” value (1 × 10^-7 M (Table 3)) is 89%.
Turning to `CSCC[C@H](NC(=O)c1ccc(CNc2cccc(OC(F)(F)F)c2)cc1-c1ccccc1)C(=O)O` [Example 678], the “% inhibition … at 1 × 10^-5 M” value came out at 73%.
In the case of `COc1ccc(CC(=O)Nc2ccc(C(=O)N[C@@H](CCSC)C(=O)O)c(-c3ccccc3C)c2)cc1` [Example 542], the “% inhibition … at 1 × 10^-6 M” value is on record as 67%.
`CSCC[C@H](NC(=O)c1ccc(CNCCc2cccs2)cc1-c1ccccc1)C(=O)O` [Example 369]: the “% inhibition … at 1 × 10^-5 M” value is given as 87%.
With `CSCC[C@H](NC(=O)c1ccc(CC(CCC2CCCCC2)S(=O)(=O)c2ccccc2)cc1-c1ccccc1C)C(=O)O` (some centres unmarked) [Example 1302, N-[4-(4-Cyclohexyl-2-phenylsulfonylbut-1-yl)-2-(2-methylphenyl)benzoyl]methionine Lithium Salt], the inhibition at 0.01 µM (read-out: % inhibition at 0.01 μM (**), Table 6, ** = 0.01 μM (footnote), title prints 0.01 mM) was determined as 93%.
In the case of `CSCC[C@H](NC(=O)c1ccc(NC(=O)CCN)cc1-c1ccccc1)C(=O)O` [Example 750], the “% inhibition … at 1 × 10^-5 M” value came out at 44%.
Consider `CSCC[C@H](NC(=O)c1ccc(CN(C2CC2)C2(Cc3ccccc3)CCC2)cc1-c1ccccc1C)C(=O)O` [Example 329], for which the inhibition at 1 µM came out at 98%.
As to `CSCC[C@H](NC(=O)c1ccc(CNc2ccc(-c3nc4ccccc4s3)cc2)cc1-c1ccccc1)C(=O)O` [Example 703], the “% inhibition … at 1 × 10^-6 M” value is 40%.
Consider `CSCC[C@H](NC(=O)c1ccc(/C=C/c2ccc(Oc3ccccc3[N+](=O)[O-])cc2)cc1-c1ccccc1C)C(=O)O` [Example 856, N-[4-(2-(4-(2-nitrophenoxy)phenyl)ethen-1-yl)-2-(2-methylphenyl)benzoyl]methionine], for which the inhibition at 0.1 µM under setting [1] is 97%.
On to `C=C(C)C1CC=C(COCc2ccc(C(=O)N[C@@H](CCSC)C(=O)O)c(-c3ccccc3C)c2)CC1` (some centres unmarked) [Example 521], for which the “% inhibition … at 1 × 10^-7 M” value (1 × 10^-7 M (Table 3)) came out at 94%.
As to `CSCC[C@H](NC(=O)c1ccc(NC(=O)OCc2cncs2)cc1-c1ccccc1C)C(=O)O` [Example 902], the “% inhibition … at 1 × 10^-6 M” value stood at 85%.
For the compound `CSCC[C@H](NC(=O)c1ccc(CNc2ccc(C)c(C)c2)cc1-c1ccccc1)C(=O)O` [Example 704], the “% inhibition … at 1 × 10^-5 M” value was 67%.
`CSCC[C@H](NC(=O)c1ccc(COCc2ccccc2)cc1-c1ccccc1C)C(=O)NS(=O)(=O)c1ccc(C)cc1` [Example 582]: the “% inhibition … at 1 × 10^-6 M” value was 99%.
Regarding `CSCC[C@H](NC(=O)c1ccc(COCCc2ccco2)cc1-c1ccccc1C)C(=O)[O-].[Li+]` [Example 531], the “% inhibition … at 1 × 10^-7 M” value (1 × 10^-7 M (Table 3)) stood at 74%.
On to `CSCC[C@H](NC(=O)c1ccc(CP(C)(=O)CC2CCCCC2)cc1-c1ccccc1C)C(=O)O` (some centres unmarked) [Example 1212, N-[4-((Cylohexylmethyl)methyl(oxophosphinyl)methyl)-2-(2-methylphenyl)benzoyl]methionine], for which the inhibition at 0.1 µM (read-out: % inhibition at 0.1 μM (*), Table 6, * = 0.1 μM (footnote), title prints 0.1 mM) was 86%.
For `CSCC[C@H](NC(=O)c1ccc(NC(=O)OCCCl)cc1-c1ccccc1)C(=O)O` [Example 979], the “% inhibition … at 1 × 10^-6 M” value is 26%.
In the case of `CSCC[C@H](NC(=O)c1ccc(CN(CC(C)C)C(CC2CCCCC2)CC2CCCCC2)cc1-c1ccccc1C)C(=O)O` [Example 908], the “% inhibition … at 1 × 10^-6 M” value is 88%.
Regarding `CC[C@H](CC1CCCCC1)NCc1ccc(C(=O)N[C@@H](CCSC)C(=O)O)c(-c2ccccc2C)c1` [Example 614], the “% inhibition of farnesyltransferase at 1 × 10^-8 M” value (from here on “% inhibition … at 1 × 10^-8 M”) was determined as 92%.
With `CSCC[C@H](NC(=O)c1ccc(CN(Cc2ccccc2)c2cccc(Cl)c2)cc1-c1ccccc1C)C(=O)O` [Example 847], the “% inhibition … at 1 × 10^-8 M” value worked out at 85%.
Regarding `C=C[C@H](CC1CCCCC1)NCc1ccc(C(=O)N[C@@H](CCSC)C(=O)O)c(-c2ccccc2C)c1` [Example 619], the “% inhibition … at 1 × 10^-8 M” value was determined as 95%.
With `CSCC[C@H](NC(=O)c1ccc(S(=O)(=O)NCCC2CCCCC2)cc1-c1ccccc1C)C(=O)O` [Example 772, lithium salt], the inhibition at 1 µM was found to be 79%.
Still for that read-out and setting: the figure for `CSCC[C@H](NC(=O)c1ccc(C=CCc2ccc3ccccc3c2)cc1-c1ccccc1C)C(=O)O` (mixture of isomers) [Example 496, N-[4-(3-naphth-2-ylprop-1-enyl)-2-(2-methylphenyl)benzoyl]methionine lithium salt (1:1 mixture of olefin isomers)] is 93%.
With `CSCC[C@H](NC(=O)c1ccc(COC(Cc2ccccc2)c2cncs2)cc1-c1ccccc1C)C(=O)[O-].[Li+]` (some centres unmarked) [Example 828], the “% inhibition … at 1 × 10^-8 M” value came to 87%.
With `CSCC[C@H](NC(=O)c1ccc(CN[C@@H](CC2CCCCC2)C(=O)N2CCCCC2)cc1-c1ccccc1C)C(=O)O` [Example 887], the “% inhibition … at 1 × 10^-8 M” value turned out to be 92%.
